In patent publication US20240197888A1, “SOS1 PROTEIN DEGRADERS, PHARMACEUTICAL COMPOSITIONS THEREOF, AND THEIR THERAPEUTIC APPLICATIONS” (BioTheryX, Inc., priority 2021, published 2024):

How the values were obtained:
Type in all cases: cell-based
Lovo (G13D) cells = test: Cell viability assay (CELLTITER-GLO), Lovo cells; conditions: Homo sapiens, 72 h, Inhibition of cancerous cells, 3 days incubation, luminescence
Protocol: (§1) AsPC-1, H358, and SW48 cells were cultured in RPMI 1640 media supplemented with 10% fetal bovine serum, streptomycin, and penicillin. Lovo and SW480 cells were cultured in DMEM media supplemented with 10% fetal bovine serum, streptomycin, and penicillin. The cell lines were plated in their respective medium supplemented with 2.5% fetal bovine serum, streptomycin, and penicillin. All cell lines were plated in white walled 96-well plates at 2,000 cells/well or 384-well plates at 500 cells/well, except Lovo, which were plated at 4,000 or 1,000 cells/well, respectively. The cells were incubated in DMSO (control) or a compound for 3 days at 37° C. under 5% CO2. A CELLTITER-GLO® reagent ([…] was then added to each well. After a 10 min incubation with shaking, luminescence was measured using an ENVISION® multimode plate reader. IC50 values are summarized in Table 1.

SW480 (G12V) cells = test: Cell viability assay (CELLTITER-GLO), SW480 cells; conditions: Homo sapiens, 72 h, Inhibition of cancerous cells, 3 days incubation, luminescence
Protocol: as §1

SW48 (wt) cells = test: Cell viability assay (CELLTITER-GLO), SW48 cells; conditions: Homo sapiens, 72 h, Inhibition of cancerous cells, 3 days incubation, luminescence
Protocol: as §1

H358 (G12C) cells = test: Cell viability assay (CELLTITER-GLO), H358 cells; conditions: Homo sapiens, NCI-H358, 72 h, Inhibition of cancerous cells, 3 days incubation, luminescence
Protocol: as §1

Structure (SMILES)	IC50 (Lovo (G13D) cells)	IC50 (SW480 (G12V) cells)	IC50 (SW48 (wt) cells)	IC50 (H358 (G12C) cells)
COc1cc2c(N[C@H](C)c3cccc(Br)c3)nc(C)nc2cc1OCCCCCCCN1CCCC(F)(F)C1 [Compound A44, (R)—N-(1-(3-Bromophenyl)ethyl)-7-((7-(3,3-difluoropiperidin-1-yl)heptyl)oxy)-6-methoxy-2-methylquinazolin-4-amine]	0.55 µM	1.2 µM	2 µM	1.9 µM
CNCc1ccccc1-c1csc([C@@H](C)Nc2nc(C)nc3cc(OCCCCCOC(=O)CC45CC6CC(CC(C6)C4)C5)c(OC)cc23)c1 [Compound A45, 5-((6-Methoxy-2-methyl-4-(((R)-1-(4-(2-((methylamino)methyl)phenyl)thiophen-2-yl)ethyl)amino)quinazolin-7-yl)oxy)pentyl 2-((3r,5r,7r)-adamantan-1-yl)acetate]	0.45 µM	0.57 µM	1 µM	0.85 µM
CNCc1ccccc1-c1csc([C@H](C)Nc2nc(C)nc3cc(OCCCCCOC(=O)CC45CC6CC(CC(C6)C4)C5)c(OC)cc23)c1 [Compound A46, 5-((6-Methoxy-2-methyl-4-(((S)-1-(4-(2-((methylamino)methyl)phenyl)thiophen-2-yl)ethyl)amino)quinazolin-7-yl)oxy)pentyl 2-((3r,5r,7r)-adamantan-1-yl)acetate]	1.5 µM	1.2 µM	1.1 µM	1.5 µM
CNCc1ccccc1-c1csc([C@@H](C)Nc2nc(C)nc3cc(OCCOCCOC(=O)CC45CC6CC(CC(C6)C4)C5)c(OC)cc23)c1 [Compound A47, 2-(2-((6-Methoxy-2-methyl-4-(((R)-1-(4-(2-((methylamino)methyl)phenyl)-thiophen-2-yl)ethyl)amino)quinazolin-7-yl)oxy)ethoxy)ethyl 2-((3r,5r,7r)-adamantan-1-yl)acetate]	0.43 µM	0.58 µM	0.64 µM	0.76 µM
CNCc1ccccc1-c1csc([C@H](C)Nc2nc(C)nc3cc(OCCOCCOC(=O)CC45CC6CC(CC(C6)C4)C5)c(OC)cc23)c1 [Compound A48, 2-(2-((6-Methoxy-2-methyl-4-(((S)-1-(4-(2-((methylamino)methyl)phenyl)-thiophen-2-yl)ethyl)amino)quinazolin-7-yl)oxy)ethoxy)ethyl 2-((3r,5r,7r)-adamantan-1-yl)acetate]	0.58 µM	0.57 µM	0.57 µM	0.94 µM
CNCc1ccccc1-c1csc([C@@H](C)Nc2nc(C)nc3cc(OCCNC(=O)CC45CC6CC(CC(C6)C4)C5)c(OC)cc23)c1 [Compound A51, 2-((3r,5r,7r)-Adamantan-1-yl)-N-(2-((6-methoxy-2-methyl-4-(((R)-1-(4-(2-((methylamino)methyl)phenyl)thiophen-2-yl)ethyl)amino)quinazolin-7-yl)oxy)ethyl)acetamide]	0.47 µM	0.62 µM	0.75 µM	1.1 µM
CNCc1ccccc1-c1csc([C@H](C)Nc2nc(C)nc3cc(OCCNC(=O)CC45CC6CC(CC(C6)C4)C5)c(OC)cc23)c1 [Compound A52, 2-((3r,5r,7r)-Adamantan-1-yl)-N-(2-((6-methoxy-2-methyl-4-(((S)-1-(4-(2-((methylamino)methyl)phenyl)thiophen-2-yl)ethyl)amino)quinazolin-7-yl)oxy)ethyl)acetamide]	0.43 µM	0.61 µM	0.89 µM	1.2 µM
COc1cc2c(N[C@H](C)c3cccc(Br)c3)nc(C)nc2cc1OCCCCc1ccncc1 [Compound A73, (R)—N-(1-(3-Bromophenyl)ethyl)-6-methoxy-2-methyl-7-(4-(pyridin-4-yl)-butoxy)quinazolin-4-amine]	1.4 µM	1 µM	4.1 µM	2.6 µM
COc1cc2c(N[C@H](C)c3cccc(Br)c3)nc(C)nc2cc1OCCCCCCCN1C(C)(C)CCCC1(C)C [Compound A74, (R)—N-(1-(3-Bromophenyl)ethyl)-6-methoxy-2-methyl-7-((7-(2,2,6,6-tetramethyl-piperidin-1-yl)heptyl)oxy)quinazolin-4-amine]	0.34 µM	0.42 µM	0.56 µM	0.65 µM
